The values that follow come from patent US20210220314A1, “AMINO ACID COMPOSITION FOR ENABLING FULFILMENT OF THE AMINO ACID REQUIREMENTS OF A MONOGASTRIC ANIMAL SUCH AS A HUMAN OR A PIG” (VETAGRO INTERNATIONAL S.R.L., priority 2018, published 2021).

The conditions of the data set: pig, in vivo, po.

With `C/C=C/C=C/C(=O)O` [sorbic acid], the “presence of marker in the content of different sections of the gastrointestinal tract” value is given as “present in the different intestinal sections only when administered in encapsulated form in the lipid matrix”. The same measure for `COc1cc(C=O)ccc1O` [vanillin]: “present in the different intestinal sections only when administered in encapsulated form in the lipid matrix”.
